Source: ChEMBL document CHEMBL4419175, “Compositions for treatment, diagnosis and prognosis of diseases” (2016)
One block for each compound: values may come before it. Activity calls are given as the source filed them. No cut-off for these calls is given here.

How the values were obtained:
LNCaP [1] = test: Effect on CREB phosphorylation in human LNCAP cells at 20 uM incubated for 48 hrs by immunoblot analysis; assay type: functional, cell-based
PC-3 [2] = test: Inhibition of PIP5K1alpha protein expression in human PC3 cells assessed as reduction in AKT phosphorylation at Ser473 residues at 50 uM incubated for 48 hrs by immunoblot analysis relative to control; assay type: functional, cell-based
LNCaP [3] = test: Inhibition of PIP5K1alpha protein expression in human LNCAP cells assessed as reduction in AKT phosphorylation at Ser473 residues at 20 uM incubated for 48 hrs by immunoblot analysis relative to control; assay type: functional
PC-3 [4] = test: Inhibition of PIP3 protein expression in human PC3 cells at 50 uM incubated for 48 hrs by immunoblot analysis; assay type: functional, cell-based
PC-3 [5] = test: Induction of apoptosis in human PC3 cells assessed as viable cells at 50 uM incubated for 48 hrs by Annexin-/7-AAD staining based FACS analysis (reference value: 94.31%); assay type: functional; conditions: PC-3, 48 h, read-out: Activity
PC-3 [6] = test: Induction of morphological changes in human PC3 cells assessed as changes in morphology at 50 uM incubated for 48 hrs by live cell imaging system based assay; assay type: functional
PC-3 [7] = test: Antitumor activity against human PC3 cells xenografted in mouse assessed as reduction in volume at 40 mg/kg co-treated with 10 mg/kg docetaxel dosed every second day starting from day 0 and ending on day 20 (reference value: 500 mm3); assay type: functional
PC-3 [8] = test: Inhibition of PIP5K1alpha protein expression in human PC3 cells assessed as reduction in CDK1 expression at 50 uM incubated for 48 hrs by immunoblot analysis relative to control; assay type: functional, cell-based
PC-3 [9] = test: Induction of apoptosis in human PC3 cells assessed as necrotic cells at 50 uM incubated for 48 hrs by Annexin-/7-AAD staining based FACS analysis (reference value: 0.32%); assay type: functional
LNCaP [10] = test: Reduction in SKP2 protein expression in human LNCAP cells at 20 uM incubated for 48 hrs by immunoblot analysis; assay type: functional, cell-based
MDA-MB-231 = test: Inhibition of cell proliferation in human MDA-MB-231 cells assessed as reduction in viable cell count at 10 to 100 uM incubated for 48 hrs; assay type: functional, cell-based
LNCaP [11] = test: Reduction in CDK1 protein expression in human LNCAP cells at 20 uM incubated for 48 hrs by immunoblot analysis; assay type: functional, cell-based
LNCaP [12] = test: Inhibition of AR protein expression in human LNCAP cells at 20 uM incubated for 48 hrs by immunoblot analysis; assay type: functional, cell-based
PC-3 [13] = test: Inhibition of PIP5K1alpha protein expression in human PC3 cells assessed as PIP5K1alpha/beta-actin ratio level at 20 uM incubated for 48 hrs by immunoblot analysis (reference value: 9.43); assay type: functional
[14] = target: Serine/threonine-protein kinase MARK1 (Homo sapiens) (UniProt Q9P0L2); test: Binding affinity to human MARK1
Serine/threonine-protein kinase MARK1 (Homo sapiens), sequence (Q9P0L2 whole entry, looked up): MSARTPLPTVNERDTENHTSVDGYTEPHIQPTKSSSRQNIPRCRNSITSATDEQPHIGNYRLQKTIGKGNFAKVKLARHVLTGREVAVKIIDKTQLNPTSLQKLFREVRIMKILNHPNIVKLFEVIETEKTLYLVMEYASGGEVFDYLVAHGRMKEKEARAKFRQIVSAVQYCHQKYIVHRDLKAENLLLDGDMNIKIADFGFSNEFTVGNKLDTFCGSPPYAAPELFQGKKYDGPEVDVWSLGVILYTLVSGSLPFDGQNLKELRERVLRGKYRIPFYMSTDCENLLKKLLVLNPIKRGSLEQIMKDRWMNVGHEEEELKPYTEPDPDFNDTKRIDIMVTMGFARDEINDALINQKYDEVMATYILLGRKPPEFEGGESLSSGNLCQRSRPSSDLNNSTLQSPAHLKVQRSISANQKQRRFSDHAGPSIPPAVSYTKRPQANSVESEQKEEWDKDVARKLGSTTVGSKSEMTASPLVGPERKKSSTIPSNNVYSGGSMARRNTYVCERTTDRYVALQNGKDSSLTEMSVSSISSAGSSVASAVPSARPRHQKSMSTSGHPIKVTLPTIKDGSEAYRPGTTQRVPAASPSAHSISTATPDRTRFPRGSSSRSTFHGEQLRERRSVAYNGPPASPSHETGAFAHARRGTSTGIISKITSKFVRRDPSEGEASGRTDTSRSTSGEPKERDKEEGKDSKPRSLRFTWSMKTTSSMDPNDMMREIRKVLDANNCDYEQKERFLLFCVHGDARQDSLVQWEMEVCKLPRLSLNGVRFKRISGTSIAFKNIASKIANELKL

PC-3 [15] = test: Induction of morphological changes in human PC3 cells assessed as reduction in cell size at 50 uM incubated for 48 hrs by live cell imaging system based assay; assay type: functional
PC-3 [16] = test: Antiproliferation activity against human PC3 cells assessed as cell proliferation at 10 uM by MTS assay; assay type: functional; conditions: read-out: Activity
PC-3 [17] = test: Induction of apoptosis in human PC3 cells assessed as late apoptotic cells at 50 uM incubated for 48 hrs by Annexin-/7-AAD staining based FACS analysis (reference value: 2.83%); assay type: functional
PC-3 [18] = test: Inhibition of PIP5K1alpha protein expression in human PC3 cells assessed as reduction in FAK phosphorylation incubated for 48 hrs by immunoblot analysis relative to control; assay type: functional, cell-based
PC-3 [19] = test: Inhibition of PIP5K1alpha protein expression in human PC3 cells assessed as reduction in cyclin E1 expression at 50 uM incubated for 48 hrs by immunoblot analysis relative to control; assay type: functional, cell-based
PC-3 [20] = test: Antiproliferation activity against human PC3 cells assessed as cell proliferation at 50 uM by MTS assay; assay type: functional; conditions: read-out: Activity
LNCaP [21] = test: Induction of apoptosis in human LNCAP cells assessed as formation of apoptotic bodies at 20 uM incubated for 48 hrs; assay type: functional, cell-based
LNCaP [22] = test: Inhibition of PSA protein expression in human LNCAP cells at 20 uM incubated for 48 hrs by immunoblot analysis; assay type: functional, cell-based
PC-3 [23] = test: Induction of cell cycle arrest in human PC3 cells assessed as change in accumulation at G2/M phase at 50 uM incubated for 48 hrs by flow cytometry relative to control; assay type: functional
LNCaP [24] = test: Inhibition of PIP5K1alpha protein expression in human LNCAP cells assessed as reduction in AKT phosphorylation at Ser473 residues at 20 uM incubated for 48 hrs by immunofluorescent analysis relative to control; assay type: functional, cell-based
PC-3 [25] = test: Inhibition of PIP5K1alpha protein expression in human PC3 cells assessed as reduction in cyclin B1 expression at 50 uM incubated for 48 hrs by immunoblot analysis relative to control; assay type: functional, cell-based
LNCaP [26] = test: Induction of apoptosis in human LNCAP cells assessed as formation of fragmented nucleus at 20 uM incubated for 48 hrs; assay type: functional, cell-based
PC-3 [27] = test: Inhibition of cell invasion in human PC3 cells assessed as cell invasion relative to control; assay type: functional; set-up: scale not given: the % may be the effect or the level left
[28] = Toxicity in mouse xenografted with human PC3 cells assessed as induction of body weight loss at 40 mg/kg dosed every second day starting from day 0 and ending on day 20; assay type: organism-based; conditions: in vivo
PC-3 [29] = test: Inhibition of cell adhesion in human PC3 cells assessed as cell adhesion relative to control; assay type: functional; set-up: scale not given: the % may be the effect or the level left
Caco-2 = test: Inhibition of cell proliferation in human Caco2 cells assessed as reduction in viable cell count at 10 to 100 uM incubated for 48 hrs; assay type: functional, cell-based
[30] = Toxicity in mouse xenografted with human PC3 cells assessed as induction of body weight loss at 40 mg/kg co-treated with 10 mg/kg docetaxel dosed every second day starting from day 0 and ending on day 20; assay type: organism-based; conditions: in vivo
LNCaP [31] = test: Increase in p27 protein expression in human LNCAP cells at 20 uM incubated for 48 hrs by immunoblot analysis; assay type: functional, cell-based
PC-3 [32] = test: Inhibition of PIP5K1alpha protein expression in human PC3 cells at 20 uM incubated for 48 hrs by immunoblot analysis; assay type: functional, cell-based
PC-3 [33] = test: Inhibition of PKAR1alpha protein expression in human PC3 cells at 20 uM incubated for 48 hrs by immunoblot analysis; assay type: functional, cell-based
U-937 = test: Inhibition of cell proliferation in human U937 cells assessed as reduction in viable cell count at 10 to 100 uM incubated for 48 hrs; assay type: functional, cell-based
PC-3 [34] = test: Antiproliferation activity against human PC3 cells assessed as cell proliferation at 20 uM by MTS assay; assay type: functional; conditions: read-out: Activity
CWR22R = test: Antiproliferation activity against human 22Rv1 cells assessed as cell proliferation at 10 to 50 uM by MTS assay; assay type: functional, cell-based
HCT-116 = test: Inhibition of cell proliferation in human HCT116 cells assessed as reduction in viable cell count at 10 to 100 uM incubated for 48 hrs; assay type: functional, cell-based
PC-3 [35] = test: Inhibition of PIP5K1alpha protein expression in human PC3 cells assessed as reduction in cyclin D1 expression at 50 uM incubated for 48 hrs by immunoblot analysis relative to control; assay type: functional, cell-based
[36] = target: T1, MAP/microtubule affinity-regulating kinase 4 (Homo sapiens) (UniProt Q96L34); test: Binding affinity to human MARK4
T1 sequence (whole entry): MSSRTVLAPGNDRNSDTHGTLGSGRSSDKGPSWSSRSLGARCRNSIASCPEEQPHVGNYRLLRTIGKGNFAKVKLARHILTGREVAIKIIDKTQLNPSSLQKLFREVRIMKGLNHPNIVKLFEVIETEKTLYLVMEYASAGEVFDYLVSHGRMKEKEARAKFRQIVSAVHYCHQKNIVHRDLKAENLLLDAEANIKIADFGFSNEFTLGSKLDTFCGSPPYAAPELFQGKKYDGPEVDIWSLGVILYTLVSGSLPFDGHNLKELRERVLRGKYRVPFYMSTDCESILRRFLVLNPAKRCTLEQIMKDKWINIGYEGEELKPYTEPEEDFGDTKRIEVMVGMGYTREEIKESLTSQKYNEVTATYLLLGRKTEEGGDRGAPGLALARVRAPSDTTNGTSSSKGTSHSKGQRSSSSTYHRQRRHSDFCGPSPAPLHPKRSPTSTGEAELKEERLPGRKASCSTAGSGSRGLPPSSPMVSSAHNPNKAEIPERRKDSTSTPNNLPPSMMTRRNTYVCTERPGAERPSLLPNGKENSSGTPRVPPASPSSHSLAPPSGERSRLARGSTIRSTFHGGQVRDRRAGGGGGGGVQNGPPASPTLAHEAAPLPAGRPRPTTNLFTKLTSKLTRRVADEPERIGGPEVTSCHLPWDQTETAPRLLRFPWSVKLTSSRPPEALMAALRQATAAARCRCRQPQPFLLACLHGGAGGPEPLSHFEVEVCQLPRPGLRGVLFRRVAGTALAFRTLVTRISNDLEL

PC-3 [37] = test: Antitumor activity against human PC3 cells xenografted in mouse assessed as reduction in volume at 40 mg/kg dosed every second day starting from day 0 and ending on day 20 relative to control; assay type: functional
[38] = target: Phosphatidylinositol 4-phosphate 5-kinase type-1 alpha (Homo sapiens) (UniProt Q99755); test: Binding affinity to human PIP5K1alpha
Phosphatidylinositol 4-phosphate 5-kinase type-1 alpha (Homo sapiens), sequence (Q99755 whole entry): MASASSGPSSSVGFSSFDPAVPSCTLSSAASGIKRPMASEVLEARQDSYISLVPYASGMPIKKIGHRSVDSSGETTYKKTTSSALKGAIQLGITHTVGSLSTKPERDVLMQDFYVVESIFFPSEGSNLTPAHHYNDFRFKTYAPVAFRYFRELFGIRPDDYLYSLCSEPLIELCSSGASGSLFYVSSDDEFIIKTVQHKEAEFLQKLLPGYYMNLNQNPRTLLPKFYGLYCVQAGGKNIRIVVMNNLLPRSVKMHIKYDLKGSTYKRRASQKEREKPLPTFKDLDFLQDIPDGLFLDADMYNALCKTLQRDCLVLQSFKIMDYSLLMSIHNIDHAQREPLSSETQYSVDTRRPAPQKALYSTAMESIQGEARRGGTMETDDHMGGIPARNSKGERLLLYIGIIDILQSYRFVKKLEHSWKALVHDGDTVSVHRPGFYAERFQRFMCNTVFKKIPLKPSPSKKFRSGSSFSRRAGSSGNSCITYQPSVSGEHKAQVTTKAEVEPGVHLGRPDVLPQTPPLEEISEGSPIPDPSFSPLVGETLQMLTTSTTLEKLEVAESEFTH

PC-3 [39] = test: Inhibition of PIP5K1alpha protein expression in human PC3 cells assessed as AKT phosphorylation at Ser473 residues at 50 uM incubated for 48 hrs by immunoblot analysis relative to control; assay type: functional; set-up: scale not given: the % may be the effect or the level left
PC-3 [40] = test: Inhibition of PIP5K1alpha protein expression in human PC3 cells assessed as reduction in CDK1 phosphorylation at 50 uM incubated for 48 hrs by immunoblot analysis relative to control; assay type: functional, cell-based
PC-3 [41] = test: Inhibition of PIP5K1alpha protein expression in human PC3 cells assessed as reduction in cyclin A2 expression at 50 uM incubated for 48 hrs by immunoblot analysis relative to control; assay type: functional, cell-based
LNCaP [42] = test: Inhibition of cell proliferation in human LNCAP cells assessed as reduction in viable cell count at 10 to 100 uM incubated for 48 hrs; assay type: functional, cell-based
LNCaP [43] = test: Inhibition of PIP5K1alpha protein expression in human LNCAP cells at 20 uM incubated for 48 hrs by immunoblot analysis; assay type: functional, cell-based
PC-3 [44] = test: Induction of apoptosis in human PC3 cells assessed as early apoptotic cells at 50 uM incubated for 48 hrs by Annexin-/7-AAD staining based FACS analysis (reference value: 2.53%); assay type: functional

Compound: CN1CC(=O)N2[C@H](c3ccc4c(c3)OCO4)c3[nH]c4ccccc4c3C[C@@H]2C1=O
- Activity (LNCaP [1]): inactive
- inhibition (PC-3 [2]): inactive
- inhibition (LNCaP [3]): inactive

- Activity [14]: Active
- Activity [36]: Active
- Activity [38]: Active
Compound: CN1CC(=O)N2[C@H](c3c[nH]c4ccc(Cl)cc34)c3cc4c(cc3C[C@H]2C1=O)OCO4
- Activity (PC-3 [4]): Active
- viability at 50 µM (PC-3 [5]): 80.2%
- Activity (LNCaP [1]): inactive
- Activity (PC-3 [6]): Active
- Activity (PC-3 [7]): 36 mm3
- inhibition (PC-3 [8]): Active
- Activity (PC-3 [9]): 0.8%
- Activity (LNCaP [10]): Active
- inhibition (MDA-MB-231): Active
- Activity (LNCaP [11]): Active
- inhibition (LNCaP [12]): Active
- Ratio (PC-3 [13]): 2.01
- Activity (PC-3 [15]): Active
- growth at 10 µM (PC-3 [16]): 58.8%
- Activity (PC-3 [17]): 9.42%
- inhibition (PC-3 [18]): Dose-dependent effect
- inhibition (PC-3 [19]): Active
- growth at 50 µM (PC-3 [20]): 21.6%
- Activity (LNCaP [21]): Active
- inhibition at 20 µM (LNCaP [3]): 75.5%
- inhibition (LNCaP [22]): Active
- Activity (PC-3 [23]): 4.96%
- inhibition (LNCaP [24]): Active
- inhibition (PC-3 [25]): Active
- Activity (LNCaP [26]): Active
- Activity (PC-3 [27]): 55.96%
- Activity [28]: Non-Toxic
- Activity (PC-3 [29]): 38.82%
- inhibition (Caco-2): Active
- Activity [30]: Non-Toxic
- Activity (LNCaP [31]): Active
- inhibition (PC-3 [32]): Active
- inhibition (PC-3 [33]): inactive
- inhibition (U-937): Active
- growth at 20 µM (PC-3 [34]): 48.6%
- Activity (CWR22R): Active
- inhibition (HCT-116): Active
- inhibition (PC-3 [35]): Active
- Activity (PC-3 [37]): 458 mm3
- Activity (PC-3 [39]): 29.77%
- inhibition (PC-3 [40]): Active
- inhibition (PC-3 [41]): Active
- inhibition (LNCaP [42]): Active
- inhibition (LNCaP [43]): Active
- Activity (PC-3 [44]): 9.55%
